The subject of one data set is Dahlen soil. Put plainly: Soil thin-layer chromatography (TLC) leaching study, Dahlen soil. The format is physicochemical. As to conditions: Dahlen soil TLC. The procedure: (§1) TLC plates were prepared based on methods described in the literature (Helling, C. S., Turner, B. C, Science 1968, 162, 562-563; Mohammad, A., Jabeen, N., JPC—Journal of Planar Chromatography—Modern TLC 2003, 16, 137-143). Masking tape (3 layers, ˜[…] total thickness) was used to outline three columns (4 cm W×12 cm H) on a glass TLC plate (20×20 cm). A slurry of freshly ground soil in distilled H2O (˜2:3 m/v) was then poured onto the prepared plate and spread evenly using a glass rod. Once even, the plate was dried overnight in an oven at 35° C. Careful removal of the masking tape afforded the TLC plate ready for sample application.
(§2) Samples of DMP (the active core of DMPP) or Compound 16 (˜1 mg) dissolved in acetone (100 μL) were pipetted in a straight line across the soil, 2 cm above the base of the plate. Application band thickness was kept under 0.5 cm. After 30 mins of drying time, the TLC plate was developed inside a glass developing chamber with distilled H2O (depth of 0.5 cm) until the solvent front reached the top of the soil (˜1 hr). […] The plate was then allowed to air dry overnight.
(§3) Once dry, the plate was divided into six horizontal bands corresponding to Rf values of: (1) <0.05 (baseline), (2) 0.05 to 0.25, (3) 0.25 to 0.45, (4) 0.45 to 0.65, (5) 0.65 to 0.85, and (6) 0.85 to 1. In sequence, soil in each band was carefully scraped off the glass backing and collected in vials. Special care was taken to avoid cross-contamination between soil of different bands, and the separate channels.
(§4) Individual soil bands collected from the TLC plate were extracted as follows: • 1. Addition of an aqueous solution of CaCl2/MgSO4 (0.01M and 0.45M respectively, 2 mL). • 2. Sonication for 5 minutes then manual shaking for 30 seconds. • 3. Addition of methyl-tert-butyl ether (MTBE, 2 mL) then manual shaking for 30 seconds. • 4. Sonication for 10 minutes then manual shaking for 30 seconds. • 5. Rested until soil began to settle, then frozen overnight at −20° C. • 6. After partial defrosting, the ethereal extract was filtered through nylon syringe filters (FilterBio®, 13 mm diameter, 0.45 µm pore size).
(§5) The filtered ethereal extracts (450 μL) were spiked with 50 μL of a standard solution of either cyclododecanone in MTBE (1.97 mg/mL, for DMP-treated samples) or cyclooctanone in MTBE (6.37 mg/mL, for 16-treated samples). Samples were then directly analysed by GC-MS (method: 70° C. for 5 mins, then ramp 10° C./min to 250° C., hold at 250° C. for 17 mins [total run time=40 minutes]) to analyse the presence or absence of the inhibitor in each soil band.
(§6) GC-MS peak areas calculated for the standards cyclooctanone (Rt=9.1 mins) and cyclododecanone (Rt=15.8 mins) were compared to those calculated for Compound 16 (Rt=13.9 mins) and DMP (Rt=7.6 mins) respectively, for each soil sample extract where inhibitor was detected as follows:
(§7) As each treatment was run in triplicate, mean values are reported for detected inhibitor percentages for each Rf band, with errors presented as the standard deviation.
(§8) Samples of the DCD (˜1 mg) dissolved in methanol (300 μL) were pipetted in a straight line across the soil, 2 cm above the base of the plate. Application band thickness was kept under 0.5 cm. After 30 mins of drying time, the TLC plate was developed inside a glass developing chamber in distilled H2O (depth of 0.5 cm) until the solvent front reached the top of the soil (˜1 hr). […] The plate was then allowed to air dry overnight.
(§9) Individual soil bands collected from the TLC plate were extracted as follows: • 1. Addition of methanol (2 mL). • 2. Manual shaking for 30 seconds following sonication for 15 minutes. • 3. Once soil began to settle, the methanolic extract was filtered through nylon syringe filters (FilterBio®, 13 mm diameter, 0.45 µm pore size). • 4. 300 μL of the methanolic extracts were evaporated under nitrogen flow, and then the residues was taken up in ultrapure acetonitrile (1 mL). • 5. […]

In a further data set the test system is South Johnstone soil. Put plainly: Soil thin-layer chromatography (TLC) leaching study, South Johnstone soil. The format is physicochemical. The procedure:
as §1, §2, §3, §4, §5, §6, §7, §8, §9

Regarding `N#CN=C(N)N` [DCD, dicyandiamide, reference compound], the “Rf range of largest DCD accumulation” value in the data set on Dahlen soil (HPLC detection, preliminary results) is listed as 0.65-1; with South Johnstone soil (South Johnstone soil TLC, HPLC detection, preliminary results), 0.65-1.

`Cc1c[nH]nc1C` [DMP, 3,4-dimethylpyrazole, reference compound]: the “Rf range in which the majority of the inhibitor was detected” value with Dahlen soil is recorded as 0.65-0.85. The “Detected Inhibitor (%)” value was found to be 0.1 ± 0.2% with Dahlen soil (Rf 0.45-0.65); 72 ± 16% with Dahlen soil (Rf 0.65-0.85); 28 ± 16% with Dahlen soil (Rf 0.85-1); 2 ± 2% in the data set with South Johnstone soil (South Johnstone soil TLC, Rf 0.25-0.45); 56 ± 12% with South Johnstone soil (South Johnstone soil TLC, Rf 0.45-0.65); 42 ± 13% in the data set on South Johnstone soil (South Johnstone soil TLC, Rf 0.65-0.85). Moreover, the “leaching in soil TLC” value in the data set on South Johnstone soil (acidic South Johnstone soil) was “leach in a narrower band and to a lesser extent than Compound 16”.

The record behind these values is patent US20220324770A1, “NITRIFICATION INHIBITORS” (The University of Melbourne, priority 2019, published 2022).
